Experimental data: ChEMBL document CHEMBL4706559, “New indolylarylsulfone non-nucleoside reverse transcriptase inhibitors show low nanomolar inhibition of single and double HIV-1 mutant strains” (Eur J Med Chem, 2020)

Columns and labels:
[1] = tested on: Human immunodeficiency virus 1; experiment: Antiviral activity against HIV-1 NL4-3 infected in human MT-4 cells assessed as virus induced cytopathic effect by MTT assay; type: functional, organism-based; details: Human immunodeficiency virus 1, NL4-3, MT4
[2] = Cytotoxicity against human MT-4 cells assessed as reduction in cell viability by MTT assay; type: cell-based, MT4
[3] = Selectivity ratio of CC50 for human MT4 cells to EC50 for antiviral activity against HIV-1 NL4-3 infected in human MT4 cells; type: toxicity, cell-based; details: read-out: Ratio CC50/EC50
[4] = tested on: Human immunodeficiency virus 1; experiment: Antiviral activity against HIV1 harboring RT K103N mutant infected in human MT4 cells assessed as protection against virus-induced cytopathic effect by MTT assay; type: functional, organism-based; details: Human immunodeficiency virus 1, MT4
[5] = tested on: Human immunodeficiency virus 1; experiment: Antiviral activity against HIV1 harboring RT Y181C mutant infected in human MT4 cells assessed as protection against virus-induced cytopathic effect by MTT assay; type: functional, organism-based; details: Human immunodeficiency virus 1, MT4
[6] = tested on: Human immunodeficiency virus 1; experiment: Antiviral activity against HIV1 harboring RT Y188L mutant infected in human MT4 cells assessed as protection against virus-induced cytopathic effect by MTT assay; type: functional, organism-based; details: Human immunodeficiency virus 1, MT4
[7] = tested on: Human immunodeficiency virus 1; experiment: Antiviral activity against HIV1 harboring RT K103N/Y181C double mutant infected in human MT4 cells assessed as protection against virus-induced cytopathic effect by MTT assay; type: functional, organism-based; details: Human immunodeficiency virus 1, MT4
[8] = tested on: Human immunodeficiency virus 1; experiment: Resistance index, ratio of EC50 for antiviral activity against HIV1 harboring RT K103N mutant infected in human MT4 cells to EC50 for antiviral activity against HIV1 NL4-3 infected in human MT4 cells; type: functional
[9] = tested on: Human immunodeficiency virus 1; experiment: Resistance index, ratio of EC50 for antiviral activity against HIV1 harboring RT Y181C mutant infected in human MT4 cells to EC50 for antiviral activity against HIV1 NL4-3 infected in human MT4 cells; type: functional
[10] = tested on: Human immunodeficiency virus 1; experiment: Resistance index, ratio of EC50 for antiviral activity against HIV1 harboring RT Y188L mutant infected in human MT4 cells to EC50 for antiviral activity against HIV1 NL4-3 infected in human MT4 cells; type: functional
[11] = tested on: Human immunodeficiency virus 1; experiment: Resistance index, ratio of EC50 for antiviral activity against HIV1 harboring RT K103N/Y181C double mutant infected in human MT4 cells to EC50 for antiviral activity against HIV1 NL4-3 infected in human MT4 cells; type: functional
[12] = target: Human immunodeficiency virus type 1 reverse transcriptase (Human immunodeficiency virus 1, UniProt Q72547); experiment: Inhibition of RNA-dependent DNA polymerase activity of wild type recombinant HIV-1 His-tagged p66/p51 reverse transcriptase assessed as inhibition of [3H]dTTP incorporation using poly(rA)/oligo(dT) as templates incubated for 15 mins by MicroBeta scintillation counting method
[13] = target: Human immunodeficiency virus type 1 reverse transcriptase (Human immunodeficiency virus 1, UniProt Q72547, K103N); experiment: Inhibition of RNA-dependent DNA polymerase activity of recombinant HIV-1 p66/p51 reverse transcriptase K103N mutant assessed as inhibition of [3H]dTTP incorporation using poly(rA)/oligo(dT) as templates incubated for 15 mins by MicroBeta scintillation counting method
[14] = Inhibition of RNA-dependent DNA polymerase activity of recombinant HIV-1 p66/p51 reverse transcriptase Y188L mutant assessed as inhibition of [3H]dTTP incorporation using poly(rA)/oligo(dT) as templates incubated for 15 mins by MicroBeta scintillation counting method; set-up: species or system Human immunodeficiency virus 1
[15] = Inhibition of RNA-dependent DNA polymerase activity of recombinant HIV-1 p66/p51 reverse transcriptase K103N/Y181C mutant assessed as inhibition of [3H]dTTP incorporation using poly(rA)/oligo(dT) as templates incubated for 15 mins by MicroBeta scintillation counting method; set-up: species or system Human immunodeficiency virus 1
[16] = tested on: Human immunodeficiency virus 1; experiment: Antiviral activity against wild type HIV-1 P1 infected in human C8166 cells assessed as reduction in viral RNA production at 25 nM; type: functional; details: Human immunodeficiency virus 1, P1, C8166
[17] = tested on: Human immunodeficiency virus 1; experiment: Antiviral activity against wild type HIV-1 P1 infected in human C8166 cells assessed as reduction in viral RNA production at 5 nM; type: functional; details: Human immunodeficiency virus 1, P1, C8166
[18] = tested on: Human immunodeficiency virus 1; experiment: Antiviral activity against wild type HIV-1 P1 infected in human C8166 cells assessed as reduction in viral RNA production at 1 nM; type: functional; details: Human immunodeficiency virus 1, P1, C8166
[19] = tested on: Human immunodeficiency virus 1; experiment: Antiviral activity against wild type HIV-1 P1 infected in human C8166 cells assessed as reduction in viral p24 antigen production at 25 nM; type: functional; details: Human immunodeficiency virus 1, P1, C8166

Compound | EC50 [1] [µM] | CC50 [2] [µM] | selectivity ratio [3] | EC50 [4] [µM] | EC50 [5] [µM] | EC50 [6] [µM] | EC50 [7] [µM] | Ratio EC50 [8] | Ratio EC50 [9] | Ratio EC50 [10] | Ratio EC50 [11] | IC50 [12] [µM] | IC50 [13] [µM] | IC50 [14] [µM] | IC50 [15] [µM] | inhibition at 0.025 µM [16] [%] | inhibition at 0.005 µM [17] [%] | inhibition at 0.001 µM [18] [%] | inhibition at 0.025 µM [19] [%]
Cc1cc(C)cc(S(=O)(=O)c2c(C(=O)NC(C)C(=O)NCc3cccc(O)c3)[nH]c3ccc(Cl)cc23)c1 (configuration not stated) | < 0.0006 | 23.8 | > 39600 | 0.0185 | 0.0074 | 3.2 | 3.67 | >31 | 12 | >5340 | >5239 | 0.208 | 0.012 | 0.034 | 0.842 | – | – | – | –
Cc1cc(C)cc(S(=O)(=O)c2c(C(=O)NCc3cccc(O)c3)[nH]c3ccc(Cl)cc23)c1 | < 0.0006 | 27 | > 44900 | < 0.0006 | 0.011 | – | 0.11 | – | >18 | – | >183 | 0.068 | 0.002 | 0.033 | 0.045 | 85 | 38 | 7 | 55
Cc1cc(C)cc(S(=O)(=O)c2c(C(=O)NCc3ccccc3N)[nH]c3ccc(Cl)cc23)c1 | < 0.0007 | 46.2 | > 65900 | < 0.0007 | < 0.0007 | 0.0021 | 0.0235 | – | – | >3 | >33 | 0.019 | 0.007 | 0.057 | 0.015 | 100 | 10 | – | 90
